Data taken from PubChem BioAssay AID256 (DTP/NCI, 2004).
Values joined by “and” are separate entries in the source; they are usually repeats but may differ in a detail not shown here. Equal values may be shown once. Toxic doses and inconclusive results are not listed.

Tested on: CD2F1 mice, L1210 leukemia ip, survival T/C
Test: NCI In Vivo Anticancer Drug Screen. Data for tumor model L1210 Leukemia (intraperitoneal) in CD2F1 (CDF1) mice
Details: higher = longer survival
Method in brief: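 Each value reflects a quotient of treated over vehicle control outcomes in mice with a transplanted tumor.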

[1] = endpoint: mean survival time, dose: 100.0 mg/kg/injection, schedule: Q01DX009 (ip), vehicle: saline with Tween-80
[2] = endpoint: mean survival time, dose: 200.0 mg/kg/injection, schedule: Q01DX009 (ip), vehicle: saline with Tween-80
[3] = endpoint: mean survival time, dose: 400.0 mg/kg/injection, schedule: Q01DX009 (ip), vehicle: saline with Tween-80
[4] = endpoint: mean survival time, dose: 100.0 mg/kg/injection, schedule: Q01DX001 (ip), vehicle: saline with Tween-80
[5] = endpoint: mean survival time, dose: 100.0 mg/kg/injection, schedule: Q04DX003 (ip), vehicle: saline with Tween-80
[6] = endpoint: mean survival time, dose: 200.0 mg/kg/injection, schedule: Q04DX003 (ip), vehicle: saline with Tween-80
[7] = endpoint: mean survival time, dose: 400.0 mg/kg/injection, schedule: Q04DX003 (ip), vehicle: saline with Tween-80
[8] = endpoint: mean survival time, dose: 5.0 mg/kg/injection, schedule: Q01DX001 (ip), vehicle: saline
[9] = endpoint: mean survival time, dose: 10.0 mg/kg/injection, schedule: Q01DX001 (ip), vehicle: saline
[10] = endpoint: mean survival time, dose: 20.0 mg/kg/injection, schedule: Q01DX001 (ip), vehicle: saline
[11] = endpoint: mean survival time, dose: 25.0 mg/kg/injection, schedule: Q04DX003 (ip), vehicle: saline
[12] = endpoint: mean survival time, dose: 50.0 mg/kg/injection, schedule: Q04DX003 (ip), vehicle: saline
[13] = endpoint: mean survival time, dose: 75.0 mg/kg/injection, schedule: Q01DX001 (ip), vehicle: saline

In the case of CCCCCCC[CH2][Sn]1([CH2]CCCCCCC)[O]C2C(CO)OC(n3cnc4c(=O)[nH]c(N)nc43)C2[O]1 (configuration not stated), the T/C (endpoint: mean survival time, dose: 1.56 mg/kg/injection, schedule: Q01DX005 (ip), vehicle: other) was 96 % of control, the T/C (endpoint: mean survival time, dose: 3.13 mg/kg/injection, schedule: Q01DX005 (ip), vehicle: other) was 98 % of control and the T/C (endpoint: mean survival time, dose: 6.25 mg/kg/injection, schedule: Q01DX005 (ip), vehicle: other) was 102 % of control. For the same compound, the T/C (endpoint: mean survival time, dose: 12.5 mg/kg/injection, schedule: Q01DX005 (ip), vehicle: other) was 104 % of control and 106 % of control.
In the case of CC(C)CCCC(C)C1CCC2C3C(O)C=C4CC(OC(=O)CCC(C)C)CCC4(C)C3CCC12C (configuration not stated), the T/C [1] was 94 % of control, the T/C [2] was 91 % of control and the T/C [3] was 100 % of control.
For Nc1c(Cl)cc2c(c1Cl)Cc1c-2cc(Br)c(N)c1Br, the T/C (endpoint: mean survival time, dose: 12.5 mg/kg/injection, schedule: Q01DX001 (ip), vehicle: saline with Tween-80) was 100 % of control, the T/C (endpoint: mean survival time, dose: 25.0 mg/kg/injection, schedule: Q01DX001 (ip), vehicle: saline with Tween-80) was 97 % of control and the T/C (endpoint: mean survival time, dose: 50.0 mg/kg/injection, schedule: Q01DX001 (ip), vehicle: saline with Tween-80) was 97 % of control. For the same compound, the T/C [4] was 101 % of control.
For O=C(Nc1ccc(OCC2=NCCN2)cc1)c1ccc(C(=O)Nc2ccc(OCC3=NCCN3)cc2)cc1, the T/C (endpoint: median survival time, dose: 3.12 mg/kg/injection, schedule: Q01DX009 (ip), vehicle: saline with Tween-80) was 102 % of control, the T/C (endpoint: median survival time, dose: 6.25 mg/kg/injection, schedule: Q01DX009 (ip), vehicle: saline with Tween-80) was 96 % of control and the T/C (endpoint: median survival time, dose: 12.5 mg/kg/injection, schedule: Q01DX009 (ip), vehicle: saline with Tween-80) was 98 % of control. The T/C (endpoint: median survival time, dose: 25.0 mg/kg/injection, schedule: Q01DX009 (ip), vehicle: saline with Tween-80) was 101 % of control and the T/C (endpoint: median survival time, dose: 50.0 mg/kg/injection, schedule: Q01DX009 (ip), vehicle: saline with Tween-80) was 98 % of control.
For O=C(C1=CN(CCCO)CCC1)c1cc2ccccc2[nH]1, the T/C [4] was 94 % of control, the T/C (endpoint: mean survival time, dose: 200.0 mg/kg/injection, schedule: Q01DX001 (ip), vehicle: saline with Tween-80) was 94 % of control and the T/C (endpoint: mean survival time, dose: 400.0 mg/kg/injection, schedule: Q01DX001 (ip), vehicle: saline with Tween-80) was 97 % of control.
For Clc1nc(Cl)c(Nc2ccn[nH]2)nc1Cl, the T/C (endpoint: mean survival time, dose: 100.0 mg/kg/injection, schedule: Q04DX003 (ip), vehicle: saline sonified) was 100 % of control, the T/C (endpoint: mean survival time, dose: 200.0 mg/kg/injection, schedule: Q04DX003 (ip), vehicle: saline sonified) was 98 % of control and the T/C (endpoint: mean survival time, dose: 400.0 mg/kg/injection, schedule: Q04DX003 (ip), vehicle: saline sonified) was 95 % of control.
For O=[N+]([O-])C1C2C=CC(C2)C1c1ccccc1 (configuration not stated), the T/C [1] was 102 % of control, the T/C [5] was 98 % of control and the T/C [2] was 95 % of control. The T/C [6] was 102 % of control, the T/C [3] was 98 % of control and the T/C [7] was 102 % of control.
CCC(CC)n1c(C)cc(=O)n1C(CC)CC was tested, and the T/C [8] was 97 % of control, the T/C [9] was 97 % of control and the T/C [10] was 95 % of control.
With CN(C)/C=N/N1CCCCCC1 the T/C [11] was 103 % of control, the T/C [12] was 97 % of control and the T/C (endpoint: mean survival time, dose: 100.0 mg/kg/injection, schedule: Q04DX003 (ip), vehicle: saline) was 96 % of control.
For O=C1NC(=O)C2(CCc3ccc(N(CCCl)CCCl)cc32)N1 (configuration not stated), the T/C (endpoint: mean survival time, dose: 6.25 mg/kg/injection, schedule: Q01DX009 (ip), vehicle: Klucel (hydroxypropylcellulose) (HPC)) was 117 % of control, the T/C (endpoint: mean survival time, dose: 6.25 mg/kg/injection, schedule: Q01DX009 (oral), vehicle: saline with Tween-80) was 96 % of control and 97 % of control and the T/C (endpoint: mean survival time, dose: 12.5 mg/kg/injection, schedule: Q01DX009 (oral), vehicle: saline with Tween-80) was 100 % of control and 105 % of control. For the same compound, the T/C (endpoint: mean survival time, dose: 25.0 mg/kg/injection, schedule: Q01DX009 (ip), vehicle: Klucel (hydroxypropylcellulose) (HPC)) was 154 % of control and 157 % of control, the T/C (endpoint: mean survival time, dose: 25.0 mg/kg/injection, schedule: Q01DX009 (oral), vehicle: saline with Tween-80) was 102 % of control and 104 % of control and the T/C (endpoint: mean survival time, dose: 50.0 mg/kg/injection, schedule: Q01DX009 (ip), vehicle: Klucel (hydroxypropylcellulose) (HPC)) was 122 % of control and 103 % of control. For the same compound, the T/C (endpoint: mean survival time, dose: 50.0 mg/kg/injection, schedule: Q01DX009 (oral), vehicle: saline with Tween-80) was 100 % of control and 104 % of control, the T/C (endpoint: mean survival time, dose: 100.0 mg/kg/injection, schedule: Q01DX009 (ip), vehicle: Klucel (hydroxypropylcellulose) (HPC)) was 97 % of control and the T/C (endpoint: mean survival time, dose: 100.0 mg/kg/injection, schedule: Q01DX009 (oral), vehicle: saline with Tween-80) was 107 % of control and 109 % of control. For the same compound, the T/C (endpoint: mean survival time, dose: 200.0 mg/kg/injection, schedule: Q01DX009 (oral), vehicle: saline with Tween-80) was 106 % of control and 110 % of control.
With CN(CCC(=O)N(C)CCC1CCCCC1)CCC1CCCCC1 the T/C [13] was 98 % of control.
For CC(=O)C(C#N)c1c(C)cc(C)cc1C (configuration not stated), the T/C (endpoint: mean survival time, dose: 37.5 mg/kg/injection, schedule: Q01DX009 (ip), vehicle: saline) was 96 % of control, the T/C (endpoint: mean survival time, dose: 75.0 mg/kg/injection, schedule: Q01DX009 (ip), vehicle: saline) was 98 % of control and the T/C (endpoint: mean survival time, dose: 150.0 mg/kg/injection, schedule: Q01DX009 (ip), vehicle: saline) was 96 % of control.
CC(C)(SC(c1ccccc1)(c1ccccc1)c1ccccc1)C(N)C(=O)O (configuration not stated) was tested, and the T/C (endpoint: mean survival time, dose: 25.0 mg/kg/injection, schedule: Q01DX009 (ip), vehicle: saline) was 106 % of control and the T/C (endpoint: mean survival time, dose: 50.0 mg/kg/injection, schedule: Q01DX009 (ip), vehicle: saline) was 103 % of control.
In the case of [Cl][Pt+2][Cl].[NH-]CCC([NH-])C(=O)O (configuration not stated), the T/C (endpoint: mean survival time, dose: 12.5 mg/kg/injection, schedule: Q04DX003 (ip), vehicle: saline) was 107 % of control, the T/C [11] was 121 % of control and the T/C [12] was 115 % of control.
For CC(=O)Oc1cccc2c1C(=O)C1(O)C(C=O)=CC3OC(C)(C)OC2(C)C31 (configuration not stated), the T/C (endpoint: mean survival time, dose: 75.0 mg/kg/injection, schedule: Q01DX001 (ip), vehicle: other) was 102 % of control, the T/C (endpoint: mean survival time, dose: 150.0 mg/kg/injection, schedule: Q01DX001 (ip), vehicle: other) was 108 % of control and the T/C (endpoint: mean survival time, dose: 300.0 mg/kg/injection, schedule: Q01DX001 (ip), vehicle: other) was 103 % of control.
For Cc1ccc(N=C(N)NC#N)cc1C, the T/C [1] was 95 % of control and the T/C [2] was 97 % of control.
For CC(=O)Nc1nc(N)nc2nonc12, the T/C (endpoint: mean survival time, dose: 12.5 mg/kg/injection, schedule: Q01DX005 (ip), vehicle: saline with Tween-80) was 100 % of control, the T/C (endpoint: mean survival time, dose: 25.0 mg/kg/injection, schedule: Q01DX005 (ip), vehicle: saline with Tween-80) was 98 % of control and the T/C (endpoint: mean survival time, dose: 50.0 mg/kg/injection, schedule: Q01DX005 (ip), vehicle: saline with Tween-80) was 100 % of control. For the same compound, the T/C (endpoint: mean survival time, dose: 100.0 mg/kg/injection, schedule: Q01DX005 (ip), vehicle: saline with Tween-80) was 96 % of control and the T/C (endpoint: mean survival time, dose: 200.0 mg/kg/injection, schedule: Q01DX005 (ip), vehicle: saline with Tween-80) was 93 % of control.
For COc1ccc(OC)c(C2N(Cc3ccccc3N(C)C)CCCN2Cc2ccccc2N(C)C)c1, the T/C [5] was 92 % of control and the T/C [6] was 88 % of control.
In the case of CC1(C)CC(=O)C(C)(C)C(=O)C1, the T/C (endpoint: mean survival time, dose: 100.0 mg/kg/injection, schedule: Q01DX001 (ip), vehicle: saline) was 100 % of control.
For O=C1N(CCO)CNC1(c1ccccc1)c1ccccc1, the T/C (endpoint: mean survival time, dose: 50.0 mg/kg/injection, schedule: Q04DX003 (ip), vehicle: saline with Tween-80) was 94 % of control, the T/C [5] was 107 % of control and the T/C [6] was 98 % of control.
For O=C1c2cccc(Cl)c2C(=O)c2c1cccc2[N+](=O)[O-], the T/C (endpoint: mean survival time, dose: 100.0 mg/kg/injection, schedule: Q04DX003 (ip), vehicle: Klucel (hydroxypropylcellulose) (HPC)) was 90 % of control, the T/C (endpoint: mean survival time, dose: 200.0 mg/kg/injection, schedule: Q04DX003 (ip), vehicle: Klucel (hydroxypropylcellulose) (HPC)) was 102 % of control and the T/C (endpoint: mean survival time, dose: 400.0 mg/kg/injection, schedule: Q04DX003 (ip), vehicle: Klucel (hydroxypropylcellulose) (HPC)) was 98 % of control.
In the case of CC(=O)Nc1ccc(/C=C(\C#N)c2ccc(C)cc2)cc1, the T/C [1] was 89 % of control, the T/C [2] was 91 % of control and the T/C [3] was 100 % of control.
Nc1ccccc1CCc1ccccc1N was tested, and the T/C [5] was 100 % of control, the T/C [6] was 102 % of control and the T/C [7] was 93 % of control.
For CC(=O)OCC1OC(n2ccc3c(N)ncnc32)C(O)C1OC(C)=O (configuration not stated), the T/C [8] was 112 % of control, the T/C [9] was 110 % of control and the T/C [10] was 108 % of control.
For CCCCCCCCCCCC(CCCC)CCCCCCCCCC (configuration not stated), the T/C (endpoint: mean survival time, dose: 100.0 mg/kg/injection, schedule: Q01DX001 (ip), vehicle: saline sonified) was 96 % of control, the T/C (endpoint: mean survival time, dose: 200.0 mg/kg/injection, schedule: Q01DX001 (ip), vehicle: saline sonified) was 102 % of control and the T/C (endpoint: mean survival time, dose: 400.0 mg/kg/injection, schedule: Q01DX001 (ip), vehicle: saline sonified) was 108 % of control.
Nc1nc(=S)c2ncn(C3OC(CO)C4OC43)c2[nH]1 (configuration not stated) was tested, and the T/C [13] was 101 % of control, the T/C (endpoint: mean survival time, dose: 150.0 mg/kg/injection, schedule: Q01DX001 (ip), vehicle: saline) was 98 % of control and the T/C (endpoint: mean survival time, dose: 300.0 mg/kg/injection, schedule: Q01DX001 (ip), vehicle: saline) was 97 % of control.
